23 compounds from ChEMBL document CHEMBL4411312, “Design, Synthesis, and Biological Evaluation of New 1-(Aryl-1 H-pyrrolyl)(phenyl)methyl-1 H-imidazole Derivatives as Antiprotozoal Agents” (J Med Chem, 2019) can be followed below.

Data set [1] is described as follows: Selectivity index, ratio of CC50 for rat L6 cels to IC50 for erythrocytic stage of Plasmodium falciparum K1. The class given is toxicity. As to conditions: L6 cells, read-out: Ratio IC50.
For data set [2], the system named is Leishmania donovani. As to the kind of experiment: Antiprotozoal activity against Leishmania donovani MHOM/ET/67/L82 axenic amastigote after 72 hrs by inverted microscopic analysis. As to conditions: MHOM/ET/67/L82, 72 h. The class given is functional, organism-based.
For data set [3], the system named is Trypanosoma cruzi. In words: Antiprotozoal activity against Trypanosoma cruzi Tulahuen C2C4 amastigotes infected in rat L6 cells after 96 hrs by inverted microscopic analysis. The class given is functional, organism-based. To be noted: Tulahuen C2C4, L6, 96 h.
The nature of data set [4]: Selectivity index, ratio of CC50 for rat L6 cels to IC50 for Leishmania donovani MHOM/ET/67/L82 axenic amastigote. The class given is toxicity. To be noted: L6 cells, read-out: Ratio IC50.
Data set [5] in a line: Cytotoxicity against rat L6 cels assessed as reduction in cell viability after 72 hrs by Alamar Blue dye-based fluorometric analysis. To be noted: L6 cells.
In data set [6] the test system is Trypanosoma brucei rhodesiense. In words: Antiprotozoal activity against Trypanosoma brucei rhodesiense STIB900 trypomastigotes after 72 hrs by Alamar Blue dye-based fluorometric analysis. To be noted: STIB900, 72 h. The class given is functional, organism-based.
Data set [7] relates to Trypanosoma cruzi. In words: Potency index, ratio of benznidazole IC50 to compound IC50 for Trypanosoma cruzi Tulahuen C2C4 amastigotes infected in rat L6 cells after 96 hrs by inverted microscopic analysis. The class given is functional.
The subject of data set [8] is Plasmodium falciparum. In words: Antiprotozoal activity against erythrocytic stage of Plasmodium falciparum K1 after 48 hrs by [3H]- hypoxanthine incorporation assay. The class given is functional, organism-based.
Data set [9] can be described thus: Selectivity index, ratio of CC50 for rat L6 cels to IC50 for Trypanosoma brucei rhodesiense STIB900 trypomastigotes. The class given is toxicity. To be noted: L6 cells, read-out: Ratio IC50.

pIC50: −log10 of the molar value. Some results are limits rather than exact numbers.

As for `CCc1ccc(-c2c[nH]cc2C(c2ccc(Cl)cc2Cl)n2ccnc2)cc1` (stereo not drawn), the selectivity ratio in [1] amounted to 45; in [4], 3. Besides, the pIC50 in [2] is 5.31; in data set [3], 7.18; in [6] it was 4.65; in [8], 6.52. Further, the CC50 at 72 h in [5] amounted to 13.3 µM. In addition, the “Ratio IC50” value in [7] came to 57.

As for `CCCCCCCCCCCCCCCCOP(=O)([O-])OCC[N+](C)(C)C` [MILTEFOSINE], in data set [4], the selectivity ratio was determined as 245. For the same compound, the 50% cytotoxic concentration (CC50) at 72 h in data set [5] was 137 µM.

Take `O=[N+]([O-])c1ccc(-n2ccc(C(c3ccccc3)n3ccnc3)c2)cc1` (stereo not drawn): the selectivity ratio in data set [1] is 12; in data set [9], 4; in [4] it was 2. In addition, the negative logarithm of the IC50 (pIC50) is 4.51 in data set [2], 4.99 in data set [3], 4.84 in data set [6] and 5.30 in [8]. In addition, the half-maximal cytotoxic concentration (CC50) at 72 h in data set [5] was 60.4 µM.

With `Clc1ccc(-c2c[nH]cc2[C@@H](c2ccc(Cl)cc2Cl)n2ccnc2)cc1`, the values for the selectivity ratio in data set [1] and in data set [4] were 51 and 1, respectively. Also, the negative-log IC50 (pIC50) in data set [2] was 5.30; in data set [3], 7.77; in [6], 4.91; in data set [8], 6.96. Also, the CC50 at 72 h in data set [5] came out at 5.56 µM.

As for `O=C(Cn1ccnc1[N+](=O)[O-])NCc1ccccc1` [BENZNIDAZOLE], the half-maximal cytotoxic concentration (CC50) at 72 h in data set [5] was more than 385 µM.

With `FC(F)(F)c1ccc(-n2ccc(C(c3ccc(Cl)cc3)n3ccnc3)c2)cc1` (stereo not drawn), the selectivity ratio in data set [1] came out at 22; in [9], 1; in data set [4], 2. The pIC50 is 4.67 in data set [2], less than 4.13 in data set [3], 4.51 in data set [6] and 5.74 in data set [8]. The 50% cytotoxic concentration (CC50) at 72 h in data set [5] came out at 40.1 µM.

Consider `Clc1ccc(C(c2c[nH]cc2-c2ccc(Cl)cc2-c2ccccc2)n2ccnc2)c(Cl)c1` (stereo not drawn), for which the figures for the selectivity ratio in data set [1] and in data set [4] were 149 and 1, respectively. Also, the negative-log IC50 (pIC50) in [2] is 4.86; in data set [3], 6.85; in data set [6], 4.54; in data set [8], 7.02. Also, in data set [5], the 50% cytotoxic concentration (CC50) at 72 h amounted to 14.3 µM. Also, in [7], the “Ratio IC50” value is listed as 4 - 12.

As for `N#Cc1ccc(C(c2ccn(-c3ccc(C#N)cc3)c2)n2ccnc2)cc1` (stereo not drawn), the results for the selectivity ratio in [1], in [9] and in data set [4] were 34, 5 and 2, respectively. Besides, the results for the pIC50 in [2], in data set [6] and in [8] were 4.07, 4.56 and 5.39, respectively. The 50% cytotoxic concentration (CC50) at 72 h in data set [5] is 139 µM.

`O=[N+]([O-])c1ccc(-n2ccc(C(c3ccc(Cl)cc3)n3ccnc3)c2)cc1` (stereo not drawn): the selectivity ratio was determined as 18 in [1], 2 in [9] and 3 in [4]. Also, the negative logarithm of the IC50 (pIC50) is 4.60 in data set [2], 5.21 in [3], 4.39 in data set [6] and 5.34 in [8]. In data set [5], the cytotoxic concentration (CC50) at 72 h is 82.4 µM.

`O=[N+]([O-])c1ccc(C(c2ccn(-c3ccc([N+](=O)[O-])cc3)c2)n2ccnc2)cc1` (stereo not drawn): the values for the selectivity ratio in data set [1], in data set [9] and in [4] were 68, 13 and 9, respectively. Also, the negative logarithm of the IC50 (pIC50) in data set [2] is 4.75; in [3], 5.44; in [6], 4.93; in data set [8], 5.63. The CC50 at 72 h in data set [5] was 159 µM.

Consider `COc1ccc(-c2c[nH]cc2C(c2ccc(Cl)cc2Cl)n2ccnc2)cc1` (stereo not drawn), for which the selectivity ratio in [1] turned out to be 32; in data set [4], 3. The pIC50 was 5.26 in data set [2], 7.30 in data set [3], 4.55 in [6] and 6.34 in [8]. Also, the CC50 at 72 h in [5] is 14.8 µM. Further, the “Ratio IC50” value in [7] is reported as 57.

As to `Nc1nc(N)nc(Nc2ccc([As]3SCC(CO)S3)cc2)n1` (stereo not drawn) [MELARSOPROL], the selectivity ratio in data set [9] came to 3280. Further, in data set [5], the half-maximal cytotoxic concentration (CC50) at 72 h was 28.9 µM.

Regarding `CC(C)c1ccc(-c2c[nH]cc2C(c2ccc(Cl)cc2Cl)n2ccnc2)cc1` (stereo not drawn), the selectivity ratio turned out to be 45 in data set [1] and 2 in [4]. The pIC50 was 5.28 in data set [2], 7.18 in data set [3], 4.62 in [6] and 6.55 in data set [8]. The cytotoxic concentration (CC50) at 72 h in data set [5] turned out to be 12.7 µM. In [7], the “Ratio IC50” value stood at 57.

Turning to `Clc1ccc(C(c2c[nH]cc2-c2ccc(Cl)cc2-n2cccc2)n2ccnc2)c(Cl)c1` (stereo not drawn), in [1], the selectivity ratio was 2. Besides, the pIC50 in [2] is 4.97; in data set [3], 4.92; in data set [6], 4.92; in data set [8], 5.34. For the same compound, the 50% cytotoxic concentration (CC50) at 72 h in [5] was found to be 7.67 µM.

In the case of `Clc1ccc(C(c2c[nH]cc2-c2ccc(Cl)cc2-c2ccccc2)n2ccnc2)cc1` (stereo not drawn), the selectivity ratio in [1] stood at 253. The negative logarithm of the IC50 (pIC50) was 4.82 in [2], 6.69 in data set [3], 4.46 in [6] and 7.23 in [8]. Besides, the half-maximal cytotoxic concentration (CC50) at 72 h in [5] came out at 14.9 µM. For the same compound, the “Ratio IC50” value in data set [7] is reported as 4 - 12.

In the case of `Clc1ccc(C(c2c[nH]cc2-c2ccc(Cl)cc2-c2cccs2)n2ccnc2)c(Cl)c1` (stereo not drawn), the values for the selectivity ratio in [1] and in data set [4] were 18 and 2, respectively. For the same compound, the pIC50 in data set [2] is 5.56; in [3], 7.57; in data set [6], 5.08; in data set [8], 6.57. The cytotoxic concentration (CC50) at 72 h in data set [5] worked out at 4.93 µM. Moreover, the “Ratio IC50” value in data set [7] came to 61.

In the case of `Cc1ccc(-c2c[nH]cc2C(c2ccc(Cl)cc2Cl)n2ccnc2)cc1` (stereo not drawn), the selectivity ratio in data set [1] worked out at 63; in data set [4], 3. For the same compound, the negative logarithm of the IC50 (pIC50) in [2] was 5.25; in [3], 7.30; in [6], 4.73; in data set [8], 6.54. The CC50 at 72 h in data set [5] was 18.4 µM. For the same compound, the “Ratio IC50” value in data set [7] was 57.

For the compound `N#Cc1ccc(C(c2ccn(-c3ccc(Cl)cc3)c2)n2ccnc2)cc1` (stereo not drawn), the figures for the selectivity ratio in data set [1], in [9] and in data set [4] were 19, 1 and 1, respectively. In addition, the pIC50 in data set [2] is 4.52; in data set [3], 5.41; in [6], 4.45; in data set [8] it was 5.66. For the same compound, the 50% cytotoxic concentration (CC50) at 72 h in [5] came to 42.4 µM.

Take `Clc1ccc(C(c2c[nH]cc2-c2ccc(Cl)c3ccccc23)n2ccnc2)c(Cl)c1` (stereo not drawn): the selectivity ratio in [1] was 15; in data set [4], 1. Moreover, the negative logarithm of the IC50 (pIC50) in [2] was 5.32; in data set [3], 7.32; in data set [6], 4.78; in data set [8] it was 6.48. In data set [5], the CC50 at 72 h was 4.9 µM.

With `Clc1ccc(-c2c[nH]cc2[C@H](c2ccc(Cl)cc2Cl)n2ccnc2)cc1`, the selectivity ratio in data set [1] turned out to be 28. For the same compound, the pIC50 in data set [3] is 9.05; in data set [6], 5.04; in data set [8], 7.04. Also, the CC50 at 72 h in [5] stood at 2.56 µM.

In data set [3], `CSc1ccc(-c2c[nH]cc2C(c2ccc(Cl)cc2Cl)n2ccnc2)cc1` (stereo not drawn) showed a pIC50 of 7.37. Moreover, in data set [7], the “Ratio IC50” value amounted to 57.

For the compound `CCN(CC)CCCC(C)Nc1ccnc2cc(Cl)ccc12` (stereo not drawn) [CHLOROQUINE], the CC50 at 72 h in data set [5] stood at 92.8 µM.

Regarding `C[C@@H]1CC[C@H]2[C@@H](C)C(=O)O[C@@H]3O[C@@]4(C)CC[C@@H]1[C@]32OO4` [ARTEMISININ], in data set [1], the selectivity ratio is more than 50000. The CC50 at 72 h in data set [5] was more than 350 µM. The compound also gave a negative-log IC50 (pIC50) in data set [8] of 8.15.
